From US9802880B2, “Cannabigerol derivatives” (VIVACELL BIOTECHNOLOGY ESPAÑA S.L., priority 2014, dated 2017)

Columns and labels:
MO3.13 cells = experiment: Cytotoxicity, MTT assay, MO3.13 cells; type: cell-based; settings: 24 h, FIG. 3C
Experimental: (§1) The cell lines N2a (A), HT22 (B) and MO3.13 (C) cells were incubated for 24 h with the indicated doses of CBG-Q (Compound I) versus compounds II to XII, and cell viability was quantified by MTT assay. […] Control was set as 100% and data were referred to that value.
(§2) Electrophilic quinones induce cytotoxicity and activate the Nrf2 pathway, a cellular sensor of reactive oxygen species generation. In FIG. 3 it is analyzed the induced cell death in three different types of cells (N2a, HT22 and MO3.13) by compounds CBG-Q (compound I) and compounds (II) to (XII).
(§3) N2A, HT22 and MO3.13 cell viability was determined by the MTT assay. Briefly, cells were seeded at a density of 10^4 cells/well in 96-well plates, 200 μl cell suspension per well, and cultured for 24 hours. Cells were then incubated with several concentrations of the compounds for 24 hours. […] Finally the absorbance was measured at 550 nm using a TriStar LB 941 (Berthold Technologies, GmbH & Co. KG). […] The cell lines N2a (FIG. 3A), HT22 (FIG. 3B) and MO3.13 (FIG. 3C) cells were incubated for 24 h with the indicated doses of compounds CBG-Q (compound I) and compounds (II) to (XII), and cell viability was quantified by MTT assay. Results are shown as mean±S.D. from at least three independent experiments, and expressed as percentage of cell viability against the control sample (−). […]

N2a cells = experiment: Cytotoxicity, MTT assay, N2a cells; type: cell-based; settings: 24 h, FIG. 3A
Experimental: as §1, §2, §3

HT22 cells = experiment: Cytotoxicity, MTT assay, HT22 cells; type: cell-based; settings: 24 h, FIG. 3B
Experimental: as §1, §2, §3

Nrf2 = Nrf2 transcriptional assay in HaCaT-ARE-Luc cells; type: cell-based; settings: 6 h, FIG. 4
Experimental: HaCaT-ARE-Luc cells were incubated for 6 h with compounds CBG-Q compound I) and with compounds I to VI (A) or with compounds VII to XII (B) at the indicated concentrations, and protein lysates were prepared and analysed for luciferase activity. The pro-oxidant tert-Butylhydroquinone (tBHQ) at 20 μM, a compound that induces cellular oxidative stress, was used as positive control. […] The results ratify that the reactive electrophilic activity associated to CBG-Q (compound I) is missing in all the compounds (derivatives in position 2) described in the present invention.
To study the activity of the compounds on the Nrf2 pathway we generated the HaCaT-ARE-Luc cell line. Nqo1 ARE-Luc reporter plasmid and pPGK-Puro plasmid were co-transfected into HaCat cells using Lipofectamine© 2000 transfection reagent (Life Technologies, Carlsbad, Ca, USA). Stable transformants were selected and maintained in RPMI 1640 containing 10% FBS, 1% penicillin-streptomycin and […] puromycin. HaCaT-ARE-Luc cells were incubated for 6 h with CBG-Q (compound I) and with compounds (II)-(VI) (A) or with compounds (VII)-(XII) (B) at the indicated concentrations, and protein lysates were prepared and analysed for luciferase activity as described in example 1. The prooxidant tert-Butylhydroquinone (tBHQ) at 20 μM was used as positive control. […]

3NP-lesioned mice = experiment: Huntington's disease 3NP model, behavioral score; type: in vivo, C57BL/6 mice; settings: 10 mg/kg i.p., four injections, FIG. 9
Experimental: Mice were subjected to behavioral tests for determining their neurological status after the treatment with compounds I (10 mg/kg) (A), III (10 mg/kg) (B) and XII (10 mg/kg) (C). Hind limb clasping, Locomotor activity, Hind limb dystonia and Truncal Dystonia were rated from 0 to 2 based on severity: a score of 0 typically indicates normal function and 2 seriously affected. Values are expressed as means±SEM for 8 animals per group.
Lesions of the striatum were induced with 3-NP in adult (16 week old; 30 g) male C57BL/6 mice (Harlan Ibérica, Barcelona, Spain). To this end, mice were subjected to seven intraperitoneal (i.p.) injections of 3NP (one injection each 12 hours) at a dose of 50 mg/kg (prepared in phosphate-buffered saline) for 3 days. These animals and their respective non-lesioned controls were used for pharmacological studies with compounds CBG-Q (compound I) and with compounds III and XII (FIG. 9). At least 6-8 animals were used per experimental group. Treatments consisted of four i.p. injections of the compounds at the indicated doses (one injection each 24 hours), or vehicle (DMSO 0.2%, BSA 5% in PBS) 30 min before the injections of 3NP. All animals were euthanized 12 hours after the last 3NP injection. Once euthanized, animals were dissected and their brains were rapidly removed. The right hemisphere was used to dissect the striatum, which was quickly frozen in RNAlater (Sigma-Aldrich, Germany) to analyzed inflammatory markers were by Real Time PCR. The left hemisphere was fixed in fresh 4% paraformaldehyde (in 0.1M phosphate buffered-saline) for 48 hours at 4° C. and embedded in paraffin wax for histological analysis. Mice were subjected to behavioral tests for determining their neurological status. We evaluated the general locomotor activity, the hindlimb clasping and dystonia, and the truncal dystonia. All behavioral tests were conducted prior to drug injections to avoid acute effects of the compounds under investigation.

CCCCCC1=CC(=O)C(C/C=C(\C)CCC=C(C)C)=C(O)C1=O [CBG-Q, Cannabigerol hydroxy quinone]
cytotoxic activity (cell viability, MTT) (MO3.13 cells): cytotoxic activity
cytotoxic activity (cell viability, MTT) (N2a cells): cytotoxic activity
cytotoxic activity (cell viability, MTT) (HT22 cells): cytotoxic activity
Nrf2 activation (ARE-luciferase activity; reactive electrophilic activity) (Nrf2): induces activation
clinical symptoms induced by 3-NP intoxication (hind limb clasping, locomotor activity, hind limb dystonia, truncal dystonia) (3NP-lesioned mice): unable to prevent the clinical symptoms
